Results: patent US11666559B2, “Spiro-lactam compounds, process and uses thereof” (UNIVERSIDADE DE COIMBRA, priority 2017, dated 2023)
Read-outs that look alike come from different tables or passages of the source.

Assays:
P. berghei liver stages = test: In vitro activity against the liver stage of Plasmodium infection (luciferase assay in Huh7 cells); type: cell-based, Plasmodium berghei; conditions: P. berghei liver stages in Huh7 cells
Procedure: FIG. 6: Compound activity against P. berghei liver stages. Anti-Plasmodial activity (infection axis, bars) and toxicity to hepatoma cells (cell confluency axis, circles) are shown. Infection loads of Huh7 cells, a human hepatoma cell line, were determined by bioluminescence measurements of cell lysates 48 h after infection with luciferase-expressing P. berghei parasites. Luciferase assay in 96 well-plate; 10 000 Huh7 cells/well+10 000 PbA-LuciGFPcon spz/well.
In an embodiment, the in vitro activity against the liver stage of Plasmodium infection was also carried out: inhibition of liver stage Plasmodium infection by test compounds was determined by measuring the luminescence intensity in Huh-7 cells infected with a firefly luciferase-expressing P. berghei line, as previously described. Briefly, Huh-7 cells, a human hepatoma cell line, were cultured in 1640 RPMI medium supplemented with 10% v/v fetal bovine serum, 1% v/v nonessential amino acids, 1% v/v penicillin/streptomycin, 1% v/v glutamine, and 10 mM 4-(2-hydroxyethyl)-1-piperazineethanesulfonic acid (HEPES), pH 7, and maintained at 37° C. with 5% CO2. For infection assays, Huh-7 cells (1.0×10^4 per well) were seeded in 96-well plates the day before drug treatment and infection. The medium was replaced by medium containing the appropriate concentration of each compound approximately 1 h prior to infection with sporozoites freshly obtained through disruption of salivary glands of infected female Anopheles stephensi mosquitoes. Sporozoite addition was followed by centrifugation at 1700×g for 5 min. Parasite infection load was measured 48 h after infection by a bioluminescence assay (Biotium). The effect of the compounds on the viability of Huh-7 cells was assessed by the AlamarBlue assay (Invitrogen, U.K.) using the manufacturer's protocol.

HIV = test: Anti-HIV activity evaluation (HIV type not specified); type: cell-based
Procedure: (§1) In an embodiment, TZM-bl cells (AIDS Research and Reference Reagent Program, National Institutes of Health, USA) were cultured in complete growth medium that consists of Dulbecco's minimal essential medium (DMEM) supplemented with 10% fetal bovine serum (FBS), 100 U/ml of penicillin-streptomycin (Gibco/Invitrogen, USA), 1 mM of sodium pyruvate (Gibco/Invitrogen, USA), 2 mM of L-glutamine (Gibco/Invitrogen, USA) and 1 mM of non-essential amino acids (Gibco/Invitrogen, USA).
(§2) In an embodiment, the primary isolates 93AOHDC249, 93AOHDC250, 01PTHDECJN and 03PTHCC9, used in this study were previously isolated, titrated and characterized for co-receptor usage. HIV reference strain SG3.1 was obtained by transfection of HEK293T cells with pSG3.1 (HIV-1) plasmid using Fugene 6 reagent (Roche, Switzerland) according to manufacturer's instructions.
(§3) In an embodiment, the 50% tissue culture infectious dose (TCID50) of the virus was determined in a single-round viral infectivity assay using a luciferase reporter gene assay in TZM-bl cells and calculated using the statistical method of Reed and Muench^27.
In an embodiment, the antiviral activity of the compounds was determined in a single-round assay with TZM-bl cells as previously described ^26. […] After 48 h of infection, luciferase expression was quantified with the One-Glow luciferase assay substrate reagent (Promega, USA) according to manufacturer's instructions. […] After an incubation of 3 minutes at room temperature to allow complete cell lysis luminescence was measured in Tecan Infinite M200. Background luminescence was measured by using control wells that contained only target cells and GM. […]
In an embodiment, dose-response curves were estimated from the percentage of inhibition of infection (y-axis) against logo of concentration of each compound (x-axis) using the sigmoidal dose-response equation (variable slope) in GraphPad Prism version 5.00 for Windows (GraphPad Software, San Diego Calif. USA, www.graphpad.com). IC50 and IC90 values were determined from this curve. […]

TZM-bl cells = test: Cellular viability assay (alamarBlue) in TZM-bl cells
Description: In an embodiment, the cellular cytotoxicity of 17 spiro-β-lactams was investigated in TZM-bl cells using the AlamarBlue assay as recommended by the manufacturer (Invitrogen, USA). TZM-bl, previously designated JC53-bl (clone 13) is a HeLa cell line. The parental cell line (JC.53) stably expresses large amounts of CD4, CCR5 and CXCR4. The TZM-bl cell line was generated from JC.53 cells by introducing separate integrated copies of the luciferase and […] genes under control of the HIV-1 promoter. The TZM-bl cell line is highly sensitive to infection with diverse isolates of HIV.
In an embodiment, the cellular viability assay was carried out as follows: the potential in vitro cytotoxicity of all BSS compounds was evaluated in TZM-bl cells. TZM-bl cells (10000 cells/well in 96-well plates) were incubated in absence or presence of serial-two-fold dilutions of the compounds in growth medium (GM), with starting concentration of 100 μg/ml and a final concentration of 0.781 μg/ml. After 48 hours, cell viability was examined with alamarBlue reagent (Invitrogen, USA) according to manufacturer's instructions. Briefly, 10 μl of alamarBlue reagent was added to each well. After 4 hours at 37° C., the fluorescence was measured in Tecan Infinite M200 (excitation wavelength 550 nm and emission wavelength 600 nm).
In an embodiment, at least two independent experiments have been performed for each cytotoxicity analysis.
In an embodiment, for each assay there were medium controls (only growth medium), cell controls (cells without test compound) and cytotoxicity controls (a compound that kill cells—SDS).

[1] = test system: Enterococcus faecalis ATCC 29212; test: Anti-bacterial activity, agar diffusion method; type: cell-based; conditions: at the concentration of 1 mg/ml
Procedure: (§4) In an embodiment, anti-bacterial activity of the compounds now disclosed was determined according to CLSI guidelines. The following bacteria were used: reference strains E. coli ATCC 10536, Staphylococcus aureus ATCC 6538, Bacillus subtilis ATCC 6633 and Enterococcus faecalis ATCC 29212; clinical strains of E. coli and Pseudomonas aeruginosa isolated in our laboratory; and strains of Lactobacillus rhamnosus and Lactobacillus plantarum also isolated in our laboratory. The Minimum Inhibitory Concentration (MIC) was determined by the agar diffusion method, in plates of Mueller-Hinton agar or Rogosa agar (for Lactobacilli). Briefly, 10^8 cfu/ml bacterial suspensions were prepared in sterile water and spread in the culture media. Sterile disks containing different concentrations of P3 were placed on the inoculated surface. Plates were incubated at 37° C. for 24 h or 48 h. Lactobacilli were incubated at microaerophilic conditions. A negative control made of sterile water was used. Disks of amoxicillin and imipenem were used as positive controls.

[2] = test system: Pseudomonas aeruginosa (Clinical strain); test: Anti-bacterial activity, agar diffusion method; type: cell-based; conditions: at the concentration of 1 mg/ml
Procedure: as §4

[3] = test system: Escherichia coli ATCC 10536; test: Anti-bacterial activity, agar diffusion method; type: cell-based; conditions: at the concentration of 1 mg/ml
Procedure: as §4

Lactobacillus plantarum = test: Anti-bacterial activity, agar diffusion method; type: cell-based; conditions: at the concentration of 1 mg/ml
Procedure: as §4

[4] = test system: Escherichia coli (Clinical strain); test: Anti-bacterial activity, agar diffusion method; type: cell-based; conditions: at the concentration of 1 mg/ml
Procedure: as §4

[5] = test system: Staphylococcus aureus ATCC 6538; test: Anti-bacterial activity, agar diffusion method; type: cell-based; conditions: at the concentration of 1 mg/ml
Procedure: as §4

Lactobacillus rhamnosus = test: Anti-bacterial activity, agar diffusion method; type: cell-based; conditions: at the concentration of 1 mg/ml
Procedure: as §4

[6] = test system: Bacillus subtillis ATCC 6633; test: Anti-bacterial activity, agar diffusion method; type: cell-based, Bacillus subtilis; conditions: at the concentration of 1 mg/ml
Procedure: as §4

HIV-1 = conditions: for IC50 / IC90: TZM-bl cells
Procedure: as §1, §2, §3
(§5) In an embodiment, the antiviral activity of the compounds was determined in a single-round assay with TZM-bl cells as previously described ^26. Cells were infected with 200 TCID50 of virus in the presence of serial fold dilutions of the BSS compounds in GM, supplemented with DEAE-dextran (19.7 μg/ml). After 48 h of infection, luciferase expression was quantified with the One-Glow luciferase assay substrate reagent (Promega, USA) according to manufacturer's instructions. Briefly, a volume of reagent equal to that of the culture medium in each well was added. For 96-well plates, typically 100 μl of reagent is added to the cells grown in 100 μl of medium. After an incubation of 3 minutes at room temperature to allow complete cell lysis luminescence was measured in Tecan Infinite M200. Background luminescence was measured by using control wells that contained only target cells and GM. Maraviroc (CCR5 antagonist), T1249 (fusion inhibitor) and AMD3100 (CXCR4 antagonist) were used as positive controls of the antiviral activity. At least two independent experiments were performed for each analysis and each assay was set up in triplicate wells.
(§6) In an embodiment, dose-response curves were estimated from the percentage of inhibition of infection (y-axis) against logo of concentration of each compound (x-axis) using the sigmoidal dose-response equation (variable slope) in GraphPad Prism version 5.00 for Windows (GraphPad Software, San Diego Calif. USA, www.graphpad.com). IC50 and IC90 values were determined from this curve. IC50 and IC90 values correspond to the concentration of compound that inhibits viral replication in 50% and 90%, respectively.

HIV-2 = test system: HIV-2
Procedure: as §1, §2, §3, §5, §6

[7] = 93AOHDC249, CCR5 tropic HIV-1 primary isolate
[8] = SG3.1, CXCR4 tropic HIV-1 adapted isolate
[9] = 03PTHCC19, CCR5 tropic HIV-2 isolate, TZM-bl cells, wa = without antiviral activity

COC(=O)C1=C[C@@]2(N=N1)C(=O)N1[C@@H](C(=O)OC(c3ccccc3)c3ccccc3)C(C)(C)S[C@@H]12 [BSS-452]
anti-Plasmodium activity (in words) (P. berghei liver stages): did not display anti-Plasmodium activity | anti-HIV activity (in words) (HIV): non-active | CC50 (TZM-bl cells): 105 µM

COC(=O)C1=C(C(=O)OC)[C@@]2(N=N1)C(=O)N1[C@@H](C(=O)O)C(C)(C)S[C@@H]12 [BSS-587, (2,3′R,5R)-4′,5′-bis(methoxycarbonyl)-3,3-dimethyl-7-oxo-4-thia-1-azaspiro[bicyclo[3.2.0]heptane-6,3′-pyrazole]-2-carboxylic acid]
inhibitory activity [1]: no inhibitory activity | inhibitory activity [2]: no inhibitory activity | inhibitory activity [3]: no inhibitory activity | inhibitory activity (Lactobacillus plantarum): no inhibitory activity | inhibitory activity [4]: no inhibitory activity | inhibitory activity [5]: no inhibitory activity | inhibitory activity (Lactobacillus rhamnosus): no inhibitory activity | CC50 (TZM-bl cells; Table 2, TZM-bl cells, 48 hours, alamarBlue): 136 µM | inhibitory activity [6]: no inhibitory activity

CC(=O)C1=NNC2(C1)C(=O)N1C(C(=O)O)C(C)(C)SC12 (centres unmarked) [BSS-591, Spiro[penicillanic-6,5′-(3-acetyl-2-pyrazoline)] acid]
inhibitory activity [1]: no inhibitory activity | inhibitory activity [2]: no inhibitory activity | inhibitory activity [3]: no inhibitory activity | inhibitory activity (Lactobacillus plantarum): no inhibitory activity | inhibitory activity [4]: no inhibitory activity | inhibitory activity [5]: no inhibitory activity | inhibitory activity (Lactobacillus rhamnosus): no inhibitory activity | CC50 (TZM-bl cells): 164 µM | inhibitory activity [6]: no inhibitory activity

CCOC(=O)C1=NNC2(C1)C(=O)N1C(C(=O)O)C(C)(C)SC12 (centres unmarked) [BSS-597, Spiro[penicillanic-6,5′-(3-ethoxycarbonyl-2-pyrazoline)] acid]
inhibitory activity [1]: no inhibitory activity | inhibitory activity [2]: no inhibitory activity | inhibitory activity [3]: no inhibitory activity | inhibitory activity (Lactobacillus plantarum): no inhibitory activity | inhibitory activity [4]: no inhibitory activity | inhibitory activity [5]: no inhibitory activity | inhibitory activity (Lactobacillus rhamnosus): no inhibitory activity | CC50 (TZM-bl cells): 152 µM | inhibitory activity [6]: no inhibitory activity

COC(=O)C1C(C(=O)OCc2ccccc2)=CCC12C(=O)N1[C@@H](C(=O)OC(c3ccccc3)c3ccccc3)C(C)(C)S[C@@H]12 (some centres unmarked) [BSS-722A]
anti-Plasmodium activity (in words) (P. berghei liver stages): presented activity | anti-HIV activity against HIV-1 (in words) (HIV-1): potent activity | MPI (maximum percentage of inhibition) (HIV-1; [7]): 99% | TI (in vitro therapeutic index, CC50/IC50) (HIV-1; [7]): 161.80 | IC50 (HIV-1; [7]): 0.332 µM | IC90 (HIV-1; [7]): 0.701 µM | MPI (maximum percentage of inhibition) (HIV-1; [8]): 97% | TI (in vitro therapeutic index, CC50/IC50) (HIV-1; [8]): 82.64 | IC50 (HIV-1; [8]): 0.65 µM | IC90 (HIV-1; [8]): 1.09 µM | anti-HIV activity against HIV-2 (in words) (HIV-2): potent activity | TI (in vitro therapeutic index, CC50/IC50) (HIV-2; 03PTHCC19, CCR5 tropic HIV-2 isolate): 105.29 | IC50 (HIV-2; [9]): 0.51 µM | IC90 (HIV-2; [9]): 1.18 µM | MPI (maximum percentage of inhibition) (HIV-2; 03PTHCC19, CCR5 tropic HIV-2 isolate, wa = without antiviral activity): 90% | CC50 (TZM-bl cells): 53.7 µM | CC50 (TZM-bl cells; read-out: CC50 (cytotoxic concentration 50%), Table 1, TZM-bl cells, 48 hours, alamarBlue): 53.7 µM

CC(=O)C1C(C(=O)OCc2ccccc2)=CCC12C(=O)N1[C@@H](C(=O)OC(c3ccccc3)c3ccccc3)C(C)(C)S[C@@H]12 (some centres unmarked) [BSS-793B]
CC50 (TZM-bl cells): 47.7 µM

CC(=O)C1C(C)C=C(C(=O)OCc2ccccc2)C12C(=O)N1[C@@H](C(=O)OC(c3ccccc3)c3ccccc3)C(C)(C)S[C@@H]12 (some centres unmarked) [BSS-794B]
CC50 (TZM-bl cells): 49 µM

CC1(C)S[C@H]2N(C(=O)C23C(C(=O)c2ccccc2)N=NC3c2ccccc2)[C@H]1C(=O)OC(c1ccccc1)c1ccccc1 (some centres unmarked) [BSS-971S]
CC50 (TZM-bl cells): 82 µM

CC(C)(C)OC(=O)C1=NNC(c2ccccc2)C12C(=O)N1[C@@H](C(=O)OC(c3ccccc3)c3ccccc3)C(C)(C)S[C@@H]12 (some centres unmarked) [BSS-973C]
CC50 (TZM-bl cells): 79.8 µM

CC(=O)C1=NNC(c2ccccc2)C12C(=O)N1[C@@H](C(=O)OC(c3ccccc3)c3ccccc3)C(C)(C)S[C@@H]12 (some centres unmarked) [BSS-974C]
CC50 (TZM-bl cells): 80.8 µM

CC(=O)C1N=NC(c2ccccc2)C12C(=O)N1[C@@H](C(=O)OC(c3ccccc3)c3ccccc3)C(C)(C)S[C@@H]12 (some centres unmarked) [BSS-974S]
CC50 (TZM-bl cells): 91.9 µM

COC(=O)C1=C(C(=O)OC)[C@@]2(N=N1)C(=O)N1[C@@H](C(=O)OC(c3ccccc3)c3ccccc3)C(C)(C)S[C@@H]12 [BSS-1026]
anti-Plasmodium activity (in words) (P. berghei liver stages): did not display anti-Plasmodium activity | anti-HIV activity (in words) (HIV): non-active | CC50 (TZM-bl cells): 82 µM
